Experimental data: article PMC4764975, “Probing the enzyme kinetics, allosteric modulation and activation of α1- and α2-subunit-containing AMP-activated protein kinase (AMPK) heterotrimeric complexes by pharmacological and physiological activators” (Biochemical Journal, 2016)
Like-named read-outs stand apart in the source and are kept apart here.

Legend:
BAP-tagged AMPK α2β2γ1 = molecular target: T1, BAP-tagged AMPK α2β2γ1 (Homo sapiens, UniProt O43741+P54619+P54646); test: SPR direct binding (Biacore)
T1 construct: Recombinant full-length AMPK heterotrimeric complexes α1β1γ1, α1β2γ1, α1β2γ3, α2β1γ1, α2β2γ1 and α2β2γ3 were cloned into a tricistronic vector system; 6X-His (N); made in house; host or cells: E. coli BL21-CodonPlus (DE3)-RIPL, co-expressed with BirA
T1 sequence (P54646 whole entry): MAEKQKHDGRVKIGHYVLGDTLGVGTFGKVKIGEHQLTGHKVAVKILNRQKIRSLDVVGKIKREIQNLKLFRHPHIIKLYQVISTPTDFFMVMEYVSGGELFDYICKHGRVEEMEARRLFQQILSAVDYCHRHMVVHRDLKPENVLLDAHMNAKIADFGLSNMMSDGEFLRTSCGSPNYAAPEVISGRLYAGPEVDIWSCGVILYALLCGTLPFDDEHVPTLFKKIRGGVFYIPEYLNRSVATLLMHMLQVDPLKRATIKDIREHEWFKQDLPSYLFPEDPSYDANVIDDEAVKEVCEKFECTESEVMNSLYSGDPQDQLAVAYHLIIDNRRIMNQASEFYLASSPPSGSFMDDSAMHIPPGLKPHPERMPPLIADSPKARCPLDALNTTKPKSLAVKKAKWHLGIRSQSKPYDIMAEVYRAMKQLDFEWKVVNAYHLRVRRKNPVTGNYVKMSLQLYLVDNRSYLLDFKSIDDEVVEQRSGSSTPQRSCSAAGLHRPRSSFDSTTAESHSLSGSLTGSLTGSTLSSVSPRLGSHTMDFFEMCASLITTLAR
T1 sequence (O43741 whole entry): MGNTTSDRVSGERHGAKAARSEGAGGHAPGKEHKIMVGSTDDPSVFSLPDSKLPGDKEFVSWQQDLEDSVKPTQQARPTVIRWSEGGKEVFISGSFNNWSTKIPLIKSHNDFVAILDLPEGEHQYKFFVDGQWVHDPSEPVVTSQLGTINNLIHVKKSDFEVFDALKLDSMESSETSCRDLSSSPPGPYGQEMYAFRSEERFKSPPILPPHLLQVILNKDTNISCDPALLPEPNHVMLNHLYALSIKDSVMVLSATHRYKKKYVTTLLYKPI
T1 sequence (P54619 whole entry): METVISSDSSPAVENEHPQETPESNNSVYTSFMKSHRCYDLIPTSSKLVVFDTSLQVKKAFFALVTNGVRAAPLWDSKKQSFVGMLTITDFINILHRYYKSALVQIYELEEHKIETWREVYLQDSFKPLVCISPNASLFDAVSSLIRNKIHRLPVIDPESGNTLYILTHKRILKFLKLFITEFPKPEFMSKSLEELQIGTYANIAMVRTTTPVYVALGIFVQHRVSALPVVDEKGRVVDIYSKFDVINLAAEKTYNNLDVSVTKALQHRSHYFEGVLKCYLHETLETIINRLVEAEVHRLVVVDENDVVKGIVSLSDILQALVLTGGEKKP
Experimental: (§1) SPR experiments were performed on a Biacore™ 3000 instrument (GE Healthcare). BAP-tagged AMPK isoform (α1β1γ1, α1β2γ1, α2β2γ1, α2β2γ3) was captured on to a streptavidin sensor chip to levels ranging from 4000 to 6000 RU. […] Binding responses were processed using Scrubber 2 (BioLogic Software Pty Ltd) to zero, x-align, double reference and corrected for excluded volume effect of DMSO in the data. […] The compound was injected at a flow rate of 50 μl/min with total contact time of 120 s and dissociation time of 600 s. Rate parameters (kon, koff) and corresponding dissociation constant(KD=koff/kon) were determined by globally fitting all of the experimental data to a simple 1:1 interaction model using Biaeval software (GE Healthcare). To determine nt binding, 10 concentrations with 2-fold dilutions were tested in duplicate. The highest concentration tested was 2 mM. The compound was injected at a flow rate of 50 μl/min with total contact time of 120 s and dissociation time of 300 s. Equilibrium dissociation constant (KD) was determined using a steady-state affinity algorithm available within Scrubber.
(§2) We then compared the binding of nts (AMP, ADP and ATP) to α1β1γ1, α1β2γ1, α2β2γ1 and α2β2γ3 isoforms in the presence and absence of Mg^2+ and Stau, using SPR technique. […]

BAP-tagged AMPK α1β1γ1 = molecular target: T2, BAP-tagged AMPK α1β1γ1 (Homo sapiens, UniProt P54619+Q13131+Q9Y478); test: SPR direct binding (Biacore)
T2 construct: Recombinant full-length AMPK heterotrimeric complexes α1β1γ1, α1β2γ1, α1β2γ3, α2β1γ1, α2β2γ1 and α2β2γ3 were cloned; 6X-His (N); AviTag (BAP); made in house; host or cells: E. coli (co-expressed with BirA)
T2 sequence (Q13131 whole entry): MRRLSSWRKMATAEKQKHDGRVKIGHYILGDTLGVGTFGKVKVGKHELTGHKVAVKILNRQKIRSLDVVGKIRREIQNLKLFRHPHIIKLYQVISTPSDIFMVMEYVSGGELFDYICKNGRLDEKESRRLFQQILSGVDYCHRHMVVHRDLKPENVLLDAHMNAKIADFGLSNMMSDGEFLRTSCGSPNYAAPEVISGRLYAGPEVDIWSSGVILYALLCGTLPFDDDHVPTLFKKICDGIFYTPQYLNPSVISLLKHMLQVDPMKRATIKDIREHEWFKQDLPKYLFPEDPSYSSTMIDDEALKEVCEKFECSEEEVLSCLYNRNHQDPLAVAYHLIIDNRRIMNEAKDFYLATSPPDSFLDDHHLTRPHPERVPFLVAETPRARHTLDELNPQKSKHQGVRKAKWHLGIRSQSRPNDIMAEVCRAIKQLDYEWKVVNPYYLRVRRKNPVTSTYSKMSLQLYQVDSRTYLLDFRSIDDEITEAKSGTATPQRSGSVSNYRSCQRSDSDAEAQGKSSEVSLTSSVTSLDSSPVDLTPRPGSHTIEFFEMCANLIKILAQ
T2 sequence (Q9Y478 whole entry): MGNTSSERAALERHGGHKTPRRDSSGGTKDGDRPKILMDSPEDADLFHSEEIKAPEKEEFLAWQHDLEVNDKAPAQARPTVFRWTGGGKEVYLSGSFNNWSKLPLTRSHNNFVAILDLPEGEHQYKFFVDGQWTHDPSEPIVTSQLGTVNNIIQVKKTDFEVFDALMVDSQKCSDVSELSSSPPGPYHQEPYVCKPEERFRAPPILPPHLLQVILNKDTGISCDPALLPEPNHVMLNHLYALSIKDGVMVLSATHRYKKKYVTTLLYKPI
T2 sequence (P54619 whole entry): as the sequence (P54619 whole entry) above
Experimental: as §1, §2

BAP-tagged AMPK α1β2γ1 = molecular target: T3, BAP-tagged AMPK α1β2γ1 (Homo sapiens, UniProt O43741+P54619+Q13131); test: SPR direct binding (Biacore)
T3 construct: Recombinant full-length AMPK heterotrimeric complexes α1β1γ1, α1β2γ1, α1β2γ3, α2β1γ1, α2β2γ1 and α2β2γ3 were cloned into a tricistronic vector system; 6X-His (N); made in house; host or cells: E. coli BL21-CodonPlus (DE3)-RIPL, co-expressed with BirA
T3 sequence (Q13131 whole entry): as the sequence (Q13131 whole entry) above
T3 sequence (O43741 whole entry): as the sequence (O43741 whole entry) above
T3 sequence (P54619 whole entry): as the sequence (P54619 whole entry) above
Experimental: as §1
(§3) We then compared the binding of nts (AMP, ADP and ATP) to α1β1γ1, α1β2γ1, α2β2γ1 and α2β2γ3 isoforms in the presence and absence of Mg^2+ and Stau, using SPR technique.

BAP-tagged AMPK α2β2γ3 = molecular target: T4, BAP-tagged AMPK α2β2γ3 (Homo sapiens, UniProt O43741+P54646+Q9UGI9); test: SPR direct binding (Biacore)
T4 construct: Recombinant full-length AMPK heterotrimeric complexes α1β1γ1, α1β2γ1, α1β2γ3, α2β1γ1, α2β2γ1 and α2β2γ3 were cloned into a tricistronic vector system; 6X-His (N); made in house; host or cells: E. coli BL21-CodonPlus (DE3)-RIPL, co-expressed with BirA
T4 sequence (P54646 whole entry): as the sequence (P54646 whole entry) above
T4 sequence (O43741 whole entry): as the sequence (O43741 whole entry) above
T4 sequence (Q9UGI9 whole entry): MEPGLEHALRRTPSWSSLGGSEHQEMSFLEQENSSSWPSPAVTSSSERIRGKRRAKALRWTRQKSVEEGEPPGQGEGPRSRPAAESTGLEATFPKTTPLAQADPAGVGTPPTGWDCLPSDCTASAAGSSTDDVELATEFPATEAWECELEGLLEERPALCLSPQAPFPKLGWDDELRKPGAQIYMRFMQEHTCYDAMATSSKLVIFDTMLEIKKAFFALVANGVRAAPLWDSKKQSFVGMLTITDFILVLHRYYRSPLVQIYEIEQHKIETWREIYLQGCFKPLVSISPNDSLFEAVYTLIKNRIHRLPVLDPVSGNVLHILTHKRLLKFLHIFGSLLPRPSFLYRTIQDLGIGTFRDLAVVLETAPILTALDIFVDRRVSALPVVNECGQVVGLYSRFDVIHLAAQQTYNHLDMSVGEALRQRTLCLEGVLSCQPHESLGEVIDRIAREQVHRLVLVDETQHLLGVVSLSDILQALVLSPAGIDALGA
Experimental: as §1, §3

[1] = molecular target: AMPK heterotrimeric complex α2β2γ1 (UniProt P54646)
Chain of AMPK heterotrimeric complex α2β2γ1 (P54646 whole entry, chain 1 of 3): as the sequence (P54646 whole entry) above
Chain of AMPK heterotrimeric complex α2β2γ1 (O43741 whole entry, chain 2 of 3, further chain): as the sequence (O43741 whole entry) above
Chain of AMPK heterotrimeric complex α2β2γ1 (P54619 whole entry, chain 3 of 3, further chain): as the sequence (P54619 whole entry) above

[2] = molecular target: AMPK heterotrimeric complex α1β2γ1 (UniProt Q13131)
Chain of AMPK heterotrimeric complex α1β2γ1 (Q13131 whole entry, chain 1 of 3): as the sequence (Q13131 whole entry) above
Chain of AMPK heterotrimeric complex α1β2γ1 (O43741 whole entry, chain 2 of 3, further chain): as the sequence (O43741 whole entry) above
Chain of AMPK heterotrimeric complex α1β2γ1 (P54619 whole entry, chain 3 of 3, further chain): as the sequence (P54619 whole entry) above

[3] = presence of Mg2+ and 25 nM Stau, cell spans KD1 and KD2, read-out: KD (single measurable binding affinity)
[4] = presence of Mg2+, cell spans KD1 and KD2, read-out: KD (single measurable binding affinity)
[5] = tighter site, absence of Mg2+ and Stau, read-out: KD1
[6] = weaker site, absence of Mg2+ and Stau, read-out: KD2

| Km for SAMS peptide (radiometric kinase assay, fixed ATP, no AMP) [1] [µM] | Km for SAMS peptide (radiometric kinase assay, fixed ATP, no AMP) [2] [µM] | Compound | Kd (BAP-tagged AMPK α2β2γ1; [3]) [µM] | Kd (BAP-tagged AMPK α2β2γ1; [4]) [µM] | Kd (BAP-tagged AMPK α2β2γ1; [5]) [µM] | Kd (BAP-tagged AMPK α2β2γ1; [6]) [µM] | Kd (BAP-tagged AMPK α1β1γ1; [3]) [µM] | Kd (BAP-tagged AMPK α1β1γ1; [4]) [µM] | Kd (BAP-tagged AMPK α1β1γ1; [5]) [µM] | Kd (BAP-tagged AMPK α1β1γ1; [6]) [µM] | Kd (BAP-tagged AMPK α1β2γ1; [3]) [µM] | Kd (BAP-tagged AMPK α1β2γ1; [4]) [µM] | Kd (BAP-tagged AMPK α1β2γ1; [5]) [µM] | Kd (BAP-tagged AMPK α1β2γ1; [6]) [µM] | Kd (BAP-tagged AMPK α2β2γ3; [3]) [µM] | Kd (BAP-tagged AMPK α2β2γ3; [4]) [µM] | Kd (BAP-tagged AMPK α2β2γ3; [5]) [µM] | Kd (BAP-tagged AMPK α2β2γ3; [6]) [µM] |
| --- | --- | --- | --- | --- | --- | --- | --- | --- | --- | --- | --- | --- | --- | --- | --- | --- | --- | --- |
|  |  | Nc1ncnc2c1ncn2[C@@H]1O[C@H](COP(=O)(O)OP(=O)(O)O)[C@@H](O)[C@H]1O [ADP] | 11.9 ± 0.3 | 22.8 ± 0.5 | 2.47 ± 0.09 | 2600 ± 300 | 24.4 ± 0.4 | 33.3 ± 0.3 | 4.75 ± 0.08 | 1010 ± 80 | 15 ± 1 | 28.2 ± 0.3 | 4.2 ± 0.2 | 2600 ± 400 | 12.5 ± 0.1 | 19 ± 0.2 | 11.2 ± 0.3 | 1500 ± 200 |
| 108 | 32.3 | SAMS peptide |  |  |  |  |  |  |  |  |  |  |  |  |  |  |  |  |
